Assay results reported in patent US20140066385A1, “METHOD FOR TREATING CANCER BY COMBINED USE OF DRUGS” (Astellas Pharma Inc., priority 2011, published 2014).

Tested on: human breast cancer (MDA-MB-231)
Assay: Example 6: FK330 with paclitaxel in MDA-MB-231 tumor-bearing mice
Type: in vivo, nude mice
Details: FK330 100 mg/kg bid p.o. + paclitaxel 10 mg/kg/day i.v. (4 days each cycle), P<0.01
Procedure: The dose of FK330 is expressed in terms of the weight of a simple substance (non-hydrate). Paclitaxel was purchased from LC Laboratories, Inc. (Woburn, Mass., USA), and was used as paclitaxel.
FK330 was suspended (20 mg/mL) in a 0.5% aqueous methyl cellulose solution (0.5% MC), and was orally administered. Paclitaxel was prepared into a stock solution at 10 mg/mL with an ethanol/cremophor solution (mixed at 1:1), and then the stock solution was diluted to 1 mg/mL with physiological saline for injection (Otsuka Pharmaceutical Group) immediately before administration and was intravenously administered through the tail vein.
Human breast cancer-derived MDA-MB-231 (HTB-26) was obtained from American Type Culture Collection (VA, USA). […]
The body weight and the tumor diameter, determined by using a digital caliper, were measured twice a week. The tumor volume was calculated from the calculation formula for ellipsoid volume of (major axis×[minor axis]^2×0.5).
The results are expressed as the mean value (Mean)±standard error (SEM). […] Using the actual measured values of the tumor volume at each measurement time points, an unpaired statistical test (Student's t-test) of the difference between two groups was carried out between a single administration group and a combined use group. […]

O=C(/C=C/c1ccc(Cl)cc1)N[C@@H](Cc1ccccn1)C(=O)NCC(=O)N1CCC(Oc2cc(C(F)(F)F)ncn2)CC1 [FK330, N^2-[(2E)-3-(4-chlorophenyl)-2-propenoyl]-N-[2-oxo-2-(4-{[6-(trifluoromethyl)pyrimidin-4-yl]oxy}piperidin-1-yl)ethyl]-3-pyridin-2-yl-L-alaninamide]
tumor volume reduction ratio compared with the paclitaxel-only group (Day 28): 59.6%
tumor volume reduction ratio compared with the paclitaxel-only group (Day 66): 82.8%
